In patent US10538521B2, “Pyrimidine derivative having antimalarial activity” (CARNA BIOSCIENCES, INC., priority 2016, dated 2020):

Key:
[1] = test system: FCR3 strain, a drug sensitive strain of Plasmodium falciparum; assay: In vitro antimalarial assay (p-LDH, Malstat), FCR3 strain; type: cell-based; details: P. falciparum FCR3 (drug sensitive), 72 h culture, p-LDH readout, read-out: Antimalarial activity (IC50 value), Strain FCR3
Summary of the method: (§1)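 IC50 derived from concentration-response of parasite lactate dehydrogenase signal (Malstat reagent, NBT/PES formazan at 655 nm) after freeze-thaw lysis. Infected erythrocytes (hematocrit 2%, parasitaemia 0.5 or 1%) exposed 72 h to 12.5–0.0001 μM final compound under 3% O2-4% CO2-93% N2, FCR3 and K1 alike.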

[2] = test system: K1 strain, a drug resistant strain of Plasmodium falciparum; assay: In vitro antimalarial assay (p-LDH, Malstat), K1 strain; type: cell-based; details: P. falciparum K1 (drug resistant), 72 h culture, p-LDH readout, read-out: Antimalarial activity (IC50 value), Strain K1
Summary of the method: as §1

| SMILES | IC50 [1] [nM] | IC50 [2] [nM] |
| --- | --- | --- |
| CCOc1cc(Nc2ccn3ccnc3c2)nc(Nc2cc(C)cc(C)n2)n1 [Example 33, N2-(4,6-dimethylpyridin-2-yl)-6-ethoxy-N4-(imidazo[1,2-a]pyridin-7-yl)pyrimidine-2,4-diamine] | < 100 | 100 to 1000 |
| Cc1ccc(Nc2nc(Nc3ccn4ccnc4c3)cc(N3CCCCC3)n2)nc1C [Example 88, N2-(5,6-dimethylpyridin-2-yl)-N4-(imidazo[1,2-a]pyridin-7-yl)-6-(piperidin-1-yl)pyrimidine-2,4-diamine] | < 100 | < 100 |
| CCCCc1cccc(Nc2nc(Nc3ccn4ccnc4c3)cc(N3CCOCC3)n2)n1 [Example 109, N2-(6-butylpyridin-2-yl)-N4-(imidazo[1,2-a]pyridin-7-yl)-6-morpholinopyrimidine-2,4-diamine] | < 100 | < 100 |
| Cc1ccnc(Nc2nc(Nc3ccn4ccnc4c3)cc(N3CCN(C)[C@@H](C)C3)n2)c1 [Example 35, (S)-6-(3,4-dimethylpiperazin-1-yl)-N4-(imidazo[1,2-a]pyridin-7-yl)-N2-(4-methylpyridin-2-yl)pyrimidine-2,4-diamine] | 1000 to 10000 | 1000 to 10000 |
| Cc1cc(C)nc(Nc2nc(N)cc(Nc3ccn4ccnc4c3)n2)c1 [Example 58, N2-(4,6-dimethylpyridin-2-yl)-N4-(imidazo[1,2-a]pyridin-7-yl)pyrimidine-2,4,6-triamine] | < 100 | < 100 |
| Fc1cncc(Nc2nc(Nc3ccn4ccnc4c3)cc(N3CCOCC3)n2)c1 [Example 6, N2-(5-Fluoropyridin-3-yl)-N 4-(imidazo[1,2-a]pyridin-7-yl)-6-morpholinopyrimidine-2,4-diamine] | 100 to 1000 | 100 to 1000 |
| Cc1cc(C)nc(Nc2nc(Nc3ccn4ccnc4c3)cc(N3CCN(C)CC3)n2)c1 [Example 30, N2-(4,6-dimethylpyridin-2-yl)-N4-(imidazo[1,2-a]pyridin-7-yl)-6-(4-methylpiperazin-1-yl) pyrimidine-2,4-diamine] | < 100 | < 100 |
| CCc1ccnc(Nc2nc(Nc3ccn4ccnc4c3)cc(N3CCN(C)[C@@H](C)C3)n2)c1 [Example 101, (S)-6-(3,4-dimethylpiperazin-1-yl)-N2-(4-ethylpyridin-2-yl)-N4-(imidazo[1,2-a]pyridin-7-yl)pyrimidine-2,4-diamine] | 100 to 1000 | 1000 to 10000 |
| CCCc1ccnc(Nc2nc(Nc3ccn4ccnc4c3)cc(N3CCCCC3)n2)c1 [Example 75, N4-(imidazo[1,2-a]pyridin-7-yl)-6-(piperidin-1-yl)-N2-(4-propylpyridin-2-yl)pyrimidine-2,4-diamine] | < 100 | 100 to 1000 |
| Cc1cccc(Nc2nc(Nc3ccn4ccnc4c3)cc(-n3ccnc3)n2)n1 [Example 41, N4-(imidazo[1,2-a]pyridin-7-yl)-6-(1H-imidazol-1-yl)-N2-(6-methylpyridin-2-yl)pyrimidine-2,4-diamine] | < 100 | 100 to 1000 |
| Cc1ccc(Nc2nc(N)cc(Nc3ccn4ccnc4c3)n2)nc1 [Example 44] | < 100 | < 100 |
| CCc1ccnc(Nc2nc(Nc3ccn4ccnc4c3)cc(N3CCN[C@@H](C)C3)n2)c1 [Example 97, (S)-N2-(4-ethylpyridin-2-yl)-N4-(imidazo[1,2-a]pyridin-7-yl)-6-(3-methylpiperazin-1-yl)pyrimidine-2,4-diamine] | 100 to 1000 | 100 to 1000 |
| Cc1ccc(Nc2nc(Nc3ccn4ccnc4c3)cc(N3CCN(C)CC3)n2)nc1 [Example 27, N4-(imidazo[1,2-a]pyridin-7-yl)-6-(4-methylpiperazin-1-yl)-N 2-(5-methylpyridin-2-yl) pyrimidine-2,4-diamine] | 1000 to 10000 | 100 to 1000 |
| CC(C)Oc1ccc(Nc2nc(Nc3ccn4ccnc4c3)cc(N3CCCCC3)n2)cn1 [Example 55, N4-(Imidazo[1,2-a]pyridin-7-yl)-N2-(6-isopropoxypyridin-3-yl)-6-(piperidin-1-yl) pyrimidine-2,4-diamine] | 100 to 1000 | 1000 to 10000 |

Other lines, results leading:

| IC50 [1] [nM] | IC50 [2] [nM] | SMILES |
| --- | --- | --- |
| < 100 | < 100 | COC1CCN(c2cc(Nc3ccn4ccnc4c3)nc(Nc3cc(C)cc(C)n3)n2)CC1 [Example 131, N2-(4,6-dimethylpyridin-2-yl)-N4-(imidazo[1,2-a]pyridin-7-yl)-6-(4-methoxypiperidin-1-yl)pyrimidine-2,4-diamine] |
| 100 to 1000 | 100 to 1000 | Cc1cc(C)nc(Nc2nc(Nc3ccccc3)cc(Nc3ccn4ccnc4c3)n2)c1 [Example 195, N2-(4,6-dimethylpyridin-2-yl)-N4-(imidazo[1,2-a]pyridin-7-yl)-N6-phenylpyrimidine-2,4,6-triamine] |
| < 100 | 100 to 1000 | CCOc1ccnc(Nc2nc(Nc3ccn4ccnc4c3)cc(N3CCCC3)n2)c1 [Example 145, N2-(4-ethoxypyridin-2-yl)-N4-(imidazo[1,2-a]pyridin-7-yl)-6-(pyrrolidin-1-yl)pyrimidine-2,4-diamine] |
| < 100 | < 100 | Cc1cc(C)nc(Nc2nc(Nc3ccn4ccnc4c3)cc(NN3CCOCC3)n2)c1 [Example 199, N2-(4,6-dimethylpyridin-2-yl)-N4-(imidazo[1,2-a]pyridin-7-yl)-N6-morpholinopyrimidine-2,4,6-triamine] |
| < 100 | < 100 | COCCc1cccc(Nc2nc(Nc3ccn4ccnc4c3)cc(N3CCCC3)n2)n1 [Example 159, N4-(imidazo[1,2-a]pyridin-7-yl)-N2-[6-(2-methoxyethyl)pyridin-2-yl]-6-(pyrrolidin-1-yl)pyrimidine-2,4-diamine] |
| < 100 | 100 to 1000 | Cc1cc(C2CC2)cc(Nc2nc(Nc3ccn4ccnc4c3)cc(N3CCCCC3)n2)n1 [Example 141, N2-(4-cyclopropyl-6-methylpyridin-2-yl)-N4-(imidazo[1,2-a]pyridin-7-yl)-6-(piperidin-1-yl)pyrimidine-2,4-diamine] |
| < 100 | < 100 | CCc1ccnc(Nc2nc(Nc3ccn4ccnc4c3)cc(N3CC(O)C3)n2)c1 [Example 115, 1-(2-((4-ethylpyridin-2-yl)amino)-6-(imidazo[1,2-a]pyridin-7-ylamino)pyrimidin-4-yl)azetidin-3-ol] |
| 100 to 1000 | 100 to 1000 | COc1cc(CF)nc(Nc2nc(Nc3ccn4ccnc4c3)cc(N3CCCCC3)n2)c1 [Example 191, N2-(6-(fluoromethyl)-4-methoxypyridin-2-yl)-N4-(imidazo [1,2-a]pyridin-7-yl)-6-(piperidin-1-yl)pyrimidine-2,4-diamine] |
| 100 to 1000 | 100 to 1000 | Cc1cc(C)nc(Nc2nc(Nc3ccn4ccnc4c3)cc(N3CCC(C)(C)CC3)n2)c1 [Example 182, 6-(4,4-dimethylpiperidin-1-yl)-N2-(4,6-dimethylpyridin-2-yl)-N4-(imidazo[1,2-a]pyridine-7-yl)pyrimidine-2,4-diamine] |
| < 100 | < 100 | CN(C)CCOc1cccc(Nc2nc(Nc3ccn4ccnc4c3)cc(N3CCCC3)n2)n1 [Example 155, N2-{6-[2-(dimethylamino)ethoxy]pyridin-2-yl}-N4-(imidazo[1,2-a]pyridin-7-yl)-6-(pyrrolidin-1-yl)pyrimidine-2,4-diamine] |
| < 100 | < 100 | CCc1ccnc(Nc2nc(Nc3ccn4ccnc4c3)cc(N3CCC(N(C)C)CC3)n2)c1 [Example 129, 6-(4-(dimethylamino)piperidin-1-yl)-N2-(4-ethylpyridin-2-yl)-N4-(imidazo[1,2-a]pyridin-7-yl)pyrimidine-2,4-diamine] |
| 100 to 1000 | 100 to 1000 | CCOCc1cccc(Nc2nc(Nc3ccn4ccnc4c3)cc(N3CCCC3)n2)n1 [Example 171, N2-[6-(ethoxymethyl)pyridin-2-yl]-N4-(imidazo[1,2-a]pyridin-7-yl)-6-(pyrrolidin-1-yl) pyrimidine-2,4-diamine] |
| < 100 | < 100 | c1cc(Nc2nc(Nc3ccn4ccnc4c3)cc(N3CCCC3)n2)nc(OCCN2CCOCC2)c1 [Example 154, N4-(imidazo[1,2-a]pyridin-7-yl)-N2-[6-(2-morpholinoethoxy)pyridin-2-yl]-6-(pyrrolidin-1-yl)pyrimidine-2,4-diamine] |
| < 100 | < 100 | CCCCc1cccc(Nc2nc(Nc3ccn4ccnc4c3)cc(N3CC(C)(C)C3)n2)n1 [Example 180, N2-(6-butylpyridin-2-yl)-6-(3,3-dimethylazetidin-1-yl)-N4-(imidazo[1,2-a]pyridin-7-yl) pyrimidine-2,4-diamine] |
| 100 to 1000 | 100 to 1000 | COc1cccc(Nc2nc(Nc3ccn4ccnc4c3)cc(N3CCCCC3)n2)n1 [Example 144, N4-(imidazo[1,2-a]pyridin-7-yl)-N2-(6-methoxypyridin-2-yl)-6-(piperidin-1-yl)pyrimidine-2,4-diamine] |
| < 100 | < 100 | Cc1cc(C)nc(Nc2nc(Nc3ccn4ccnc4c3)cc(N3CCC4(CCOCC4)C3)n2)c1 [Example 175, N2-(4,6-dimethylpyridin-2-yl)-N4-(imidazo[1,2-a]pyridin-7-yl)-6-(8-oxa-2-azaspiro[4.5]decan-2-yl)pyrimidine-2,4-diamine] |
| 100 to 1000 | 100 to 1000 | Cc1cc(C)nc(Nc2nc(Nc3ccn4ccnc4c3)cc(N3CCC(C)CC3)n2)c1 [Example 183, N2-(4,6-dimethylpyridin-2-yl)-N4-(imidazo[1,2-a]pyridin-7-yl)-6-(4-methylpiperidin-1-yl) pyrimidine-2,4-diamine] |
| < 100 | < 100 | Cc1cc(C)nc(Nc2nc(Nc3ccn4ccnc4c3)cc(N3C[C@@H]4OCCO[C@@H]4C3)n2)c1 [Example 194, N2-(4,6-dimethylpyridin-2-yl)-N4-(imidazo[1,2-a]pyridin-7-yl)-6-[(4aR,7aS)-tetrahydro-2H-[1,4]dioxino[2,3-c]pyrrol-6(3H)-yl]pyrimidine-2,4-diamine] |
